In US9669034B2, “4-aryl-N-phenyl-1,3,5-triazin-2-amines containing a sulfoximine group” (BAYER INTELLECTUAL PROPERTY GMBH, priority 2011, dated 2017):

Key:
[1] = molecular target: CDK2/CycE (Homo sapiens (Human), UniProt P24941); test: CDK2/CycE kinase assay (TR-FRET); format: biochemical; details: Method 2
Excerpt: 2. CDK2/CycE Kinase Assay:
CDK2/CycE—inhibitory activity of compounds of the present invention was quantified employing the CDK2/CycE TR-FRET assay as described in the following paragraphs:
Recombinant fusion proteins of GST and human CDK2 and of GST and human CycE, expressed in insect cells (Sf9) and purified by Glutathion-Sepharose affinity chromatography, were purchased from ProQinase GmbH (Freiburg, Germany). As substrate for the kinase reaction biotinylated peptide biotin-Ttds-[…]

[2] = molecular target: CDK9/CycT1 (Homo sapiens (Human), UniProt P50750); test: CDK9/CycT1 kinase assay (TR-FRET); format: biochemical; details: Method 1
Excerpt: 1. CDK9/CycT1 Kinase Assay:
CDK9/CycT1—inhibitory activity of compounds of the present invention was quantified employing the CDK9/CycT1 TR-FRET assay as described in the following paragraphs:
Recombinant full-length His-tagged human CDK9 and CycT1, expressed in insect cells and purified by Ni-NTA affinity chromatography, were purchased from Invitrogen (Cat. No PV4131). As substrate for the kinase reaction biotinylated peptide biotin-Ttds-[…]

CDK9/CycT1, sequence (P50750 whole entry): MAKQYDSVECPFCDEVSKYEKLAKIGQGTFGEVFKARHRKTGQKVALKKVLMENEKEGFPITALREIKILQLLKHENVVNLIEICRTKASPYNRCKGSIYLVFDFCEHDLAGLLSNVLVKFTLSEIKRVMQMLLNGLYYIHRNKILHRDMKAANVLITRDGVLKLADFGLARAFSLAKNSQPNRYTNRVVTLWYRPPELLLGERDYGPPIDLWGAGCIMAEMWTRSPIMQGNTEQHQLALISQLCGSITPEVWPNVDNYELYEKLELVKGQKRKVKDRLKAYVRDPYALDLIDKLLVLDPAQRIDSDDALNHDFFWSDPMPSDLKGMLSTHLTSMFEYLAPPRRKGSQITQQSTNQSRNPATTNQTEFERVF
CDK9/CycT1, sequence (O60563 whole entry partner): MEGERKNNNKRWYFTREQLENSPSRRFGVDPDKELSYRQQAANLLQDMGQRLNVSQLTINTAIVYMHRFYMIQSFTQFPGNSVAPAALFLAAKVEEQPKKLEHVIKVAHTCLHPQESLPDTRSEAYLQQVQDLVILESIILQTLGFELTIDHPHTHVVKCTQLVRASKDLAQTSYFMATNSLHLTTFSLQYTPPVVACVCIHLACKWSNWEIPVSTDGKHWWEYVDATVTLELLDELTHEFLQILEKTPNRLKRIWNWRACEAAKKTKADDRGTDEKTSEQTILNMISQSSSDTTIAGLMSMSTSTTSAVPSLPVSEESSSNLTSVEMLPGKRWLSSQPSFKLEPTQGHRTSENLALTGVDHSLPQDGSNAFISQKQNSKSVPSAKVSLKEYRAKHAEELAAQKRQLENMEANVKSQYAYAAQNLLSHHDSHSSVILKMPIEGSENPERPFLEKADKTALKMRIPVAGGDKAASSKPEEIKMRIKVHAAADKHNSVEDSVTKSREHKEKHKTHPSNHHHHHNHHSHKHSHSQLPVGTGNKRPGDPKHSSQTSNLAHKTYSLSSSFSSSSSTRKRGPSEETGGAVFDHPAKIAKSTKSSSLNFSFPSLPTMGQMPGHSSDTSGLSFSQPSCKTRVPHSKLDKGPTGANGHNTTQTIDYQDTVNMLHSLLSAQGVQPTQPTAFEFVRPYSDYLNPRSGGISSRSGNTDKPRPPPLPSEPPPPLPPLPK

Molecule `CCOC(=O)N=S(C)(=O)Cc1cccc(Nc2ncnc(-c3ccc(F)cc3OC)n2)c1` (racemic) [Example 1, (rac)-Ethyl [(3-{[4-(4-fluoro-2-methoxyphenyl)-1,3,5-triazin-2-yl]amino}benzyl)(methyl)oxido-λ^6-sulfanylidene]carbamate] has an IC50 [1] of 2200 nM.

With `CS(=N)(=O)Cc1cccc(Nc2ncnc(-c3ccc(F)cc3OCc3ccccc3)n2)c1` (racemic) [Example 6, (rac)-4-[2-(Benzyloxy)-4-fluorophenyl]-N-{3-[(S-methylsulfonimidoyl)methyl]phenyl}-1,3,5-triazin-2-amine] the IC50 [1] was 220 nM and the IC50 [2] was 3 nM.

In the case of `CCOC(=O)N=S(C)(=O)Cc1cccc(Nc2ncnc(-c3ccc(Cl)cc3OC)n2)c1` (racemic) [Example 11, (rac)-Ethyl [(3-{[4-(4-chloro-2-methoxyphenyl)-1,3,5-triazin-2-yl]amino}benzyl)(methyl)oxido-λ^6-sulfanylidene]carbamate], the IC50 [1] is reported as 5500 nM and the IC50 [2] is reported as 23 nM.

`COc1cc(Cl)ccc1-c1ncnc(Nc2cccc(CS(C)(=N)=O)c2)n1` (racemic) [Example 12, (rac) 4-(4-Chloro-2-methoxyphenyl)-N-{3-[(S-methylsulfonimidoyl)methyl]phenyl}-1,3,5-triazin-2-amine] showed an IC50 [1] of 6800 nM and an IC50 [2] of 74 nM.

For `CCOC(=O)N=S(C)(=O)Cc1cccc(Nc2ncnc(-c3cccc4c3OC(F)(F)O4)n2)c1` (racemic) [Example 18, (rac)-Ethyl [(3-{[4-(2,2-difluoro-1,3-benzodioxol-4-yl)-1,3,5-triazin-2-yl]amino}benzyl)(methyl)oxido-λ^6-sulfanylidene]carbamate], the IC50 [1] was 3900 nM and the IC50 [2] was 33 nM.

`CS(=N)(=O)Cc1cccc(Nc2ncnc(-c3cccc4c3OC(F)(F)O4)n2)c1` (racemic) [Example 19, (rac)-4-(2,2-Difluoro-1,3-benzodioxol-4-yl)-N-{3-[(S-methylsulfonimidoyl)methyl]phenyl}-1,3,5-triazin-2-amine] showed an IC50 [1] of 2100 nM and an IC50 [2] of 59 nM.

Molecule `CCOC(=O)N=S(C)(=O)Cc1cccc(Nc2ncnc(-c3cc(F)ccc3OC)n2)c1` (racemic) [Example 20, (rac)-Ethyl [(3-{[4-(5-fluoro-2-methoxyphenyl)-1,3,5-triazin-2-yl]amino}benzyl)(methyl)oxido-λ^6-sulfanylidene]carbamate] has an IC50 [1] of 2000 nM and an IC50 [2] of 22 nM.

In the case of `COc1ccc(F)cc1-c1ncnc(Nc2cccc(CS(C)(=N)=O)c2)n1` (racemic) [Example 21, (rac)-4-(5-Fluoro-2-methoxyphenyl)-N-{3-[(S-methylsulfonimidoyl)methyl]phenyl}-1,3,5-triazin-2-amine], the IC50 [1] is reported as 3500 nM and the IC50 [2] is reported as 56 nM.

`COc1ccccc1-c1ncnc(Nc2cccc(CS(C)(=N)=O)c2)n1` (racemic) [Example 26, (rac)-4-(2-Methoxyphenyl)-N-{3-[(S-methylsulfonimidoyl)methyl]phenyl}-1,3,5-triazin-2-amine] gave an IC50 [1] of 4600 nM and an IC50 [2] of 35 nM.

`CCOC(=O)N=S(C)(=O)Cc1cccc(Nc2ncnc(-c3cccc4c3OCC4)n2)c1` (racemic) [Example 33, (rac)-Ethyl [(3-{[4-(2,3-dihydro-1-benzofuran-7-yl)-1,3,5-triazin-2-yl]amino}benzyl)(methyl)oxido-λ^6-sulfanylidene]carbamate] gave an IC50 [1] of 3100 nM and an IC50 [2] of 21 nM.

Work on `CS(=N)(=O)Cc1cccc(Nc2ncnc(-c3cccc4c3OCC4)n2)c1` (racemic) [Example 34, (rac)-4-(2,3-Dihydro-1-benzofuran-7-yl)-N-{3-[(S-methylsulfonimidoyl)methyl]phenyl}-1,3,5-triazin-2-amine] yielded an IC50 [1] of 2200 nM and an IC50 [2] of 68 nM.

For `CS(=N)(=O)Cc1cccc(Nc2ncnc(-c3cccc4c3OCCO4)n2)c1` (racemic) [Example 38, (rac)-4-(2,3-Dihydro-1,4-benzodioxin-5-yl)-N-{3-[(S-methylsulfonimidoyl)methyl]phenyl}-1,3,5-triazin-2-amine], the IC50 [1] was 1600 nM and the IC50 [2] was 14 nM.

`CN=S(C)(=O)Cc1cccc(Nc2ncnc(-c3ccc(F)cc3OC)n2)c1` (racemic) [Example 41, (rac)-N-{3-[(N,S-Dimethylsulfonimidoyl)methyl]phenyl}-4-(4-fluoro-2-methoxyphenyl)-1,3,5-triazin-2-amine] was tested, and the IC50 [1] was 2600 nM and the IC50 [2] was 36 nM.

For `CCOC(=O)N=S(C)(=O)Cc1cccc(Nc2ncnc(-c3cccc(Cl)c3OC)n2)c1` (racemic) [Example 45, (rac)-Ethyl [(3-{[4-(3-chloro-2-methoxyphenyl)-1,3,5-triazin-2-yl]amino}benzyl)(methyl)oxido-λ^6-sulfanylidene]carbamate], the IC50 [1] was 9000 nM and the IC50 [2] was 820 nM.

Molecule `CCOC(=O)N=S(C)(=O)Cc1cccc(Nc2ncnc(-c3cc(F)ccc3OCC3CCOCC3)n2)c1` (racemic) [Example 46, (rac)-Ethyl {[3-({4-[5-fluoro-2-(tetrahydro-2H-pyran-4-ylmethoxy)phenyl]-1,3,5-triazin-2-yl}amino)benzyl](methyl)oxido-λ^6-sulfanylidene}carbamate] has an IC50 [1] of 11000 nM and an IC50 [2] of 120 nM.

Work on `CCOC(=O)N=S(C)(=O)Cc1cccc(Nc2ncnc(-c3ccccc3Oc3ccccc3)n2)c1` (racemic) [Example 47, (rac)-Ethyl [methyl(oxido)(3-{[4-(2-phenoxyphenyl)-1,3,5-triazin-2-yl]amino}benzyl)-λ^6-sulfanylidene]carbamate] yielded an IC50 [1] of 6500 nM and an IC50 [2] of 35 nM.

`CS(=N)(=O)Cc1cccc(Nc2ncnc(-c3ccc(F)cc3OCCC3CCOCC3)n2)c1` (racemic) [Example 57, (rac)-4-{4-Fluoro-2-[2-(tetrahydro-2H-pyran-4-yl)ethoxy]phenyl}-N-{3-[(S-methylsulfonimidoyl)methyl]phenyl}-1,3,5-triazin-2-amine] was tested, and the IC50 [1] was 8300 nM and the IC50 [2] was 370 nM.

`COc1cc(F)ccc1-c1ncnc(Nc2cccc(CS(=N)(=O)C3CCOCC3)c2)n1` (racemic) [Example 58, (rac)-4-(4-Fluoro-2-methoxyphenyl)-N-(3-{[S-(tetrahydro-2H-pyran-4-yl)sulfonimidoyl]methyl}phenyl)-1,3,5-triazin-2-amine] showed an IC50 [1] of 5200 nM and an IC50 [2] of 89 nM.

In the case of `CCOC(=O)N=S(C)(=O)Cc1cccc(Nc2ncnc(-c3ccccc3OCc3ccc(Cl)c(Cl)c3)n2)c1` (racemic) [Example 60, (rac)-Ethyl [{3-[(4-{2-[(3,4-dichlorobenzyl)oxy]phenyl}-1,3,5-triazin-2-yl)amino]benzyl}(methyl)oxido-λ^6-sulfanylidene]carbamate], the IC50 [1] is reported as 3300 nM and the IC50 [2] is reported as 13 nM.

For `COc1cc(F)ccc1-c1ncnc(Nc2cc(F)c(F)c(CS(C)(=N)=O)c2)n1` (racemic) [Example 106, (rac)-N-{3,4-Difluoro-5-[(S-methylsulfonimidoyl)methyl]phenyl}-4-(4-fluoro-2-methoxyphenyl)-1,3,5-triazin-2-amine], the IC50 [1] was 400 nM.

Molecule `COc1cc(F)ccc1-c1ncnc(Nc2cc(F)cc(CS(C)(=N)=O)c2)n1` (single isomer, unassigned) [Example 53, 4-(4-Fluoro-2-methoxyphenyl)-N-{3-fluoro-5-[(S-methylsulfonimidoyl)methyl]phenyl}-1,3,5-triazin-2-amine] has an IC50 [1] of 540 nM.

`CC(Oc1cc(F)ccc1-c1ncnc(Nc2cccc(CS(C)(=N)=O)c2)n1)C1CCCC1` (stereo not shown) [Example 63, 4-[2-(1-cyclopentylethoxy)-4-fluorophenyl]-N-{3-[(S-methylsulfonimidoyl)methyl]phenyl}-1,3,5-triazin-2-amine] was tested, and the IC50 [2] was 99 nM.
